Test results as given in patent US20250263459A1, “STABILIZED PACAP PEPTIDE” (SENJU PHARMACEUTICAL CO., LTD., priority 2019, published 2025).
Non-standard residues stand in square brackets, D forms with d. Residues, ends and D or L forms follow the SMILES beside them. ξ: configuration not given here. ξAla(tetrazol-5-yl) = NC(Cc1nnn[nH]1)C(=O)O

Experiments:
PAC1 receptor (PAC1R) = molecular target: T1, PAC1 receptor (PAC1R) (Homo sapiens, UniProt P41586); details: background statement; cited from earlier work
T1 sequence (P41586 21-468): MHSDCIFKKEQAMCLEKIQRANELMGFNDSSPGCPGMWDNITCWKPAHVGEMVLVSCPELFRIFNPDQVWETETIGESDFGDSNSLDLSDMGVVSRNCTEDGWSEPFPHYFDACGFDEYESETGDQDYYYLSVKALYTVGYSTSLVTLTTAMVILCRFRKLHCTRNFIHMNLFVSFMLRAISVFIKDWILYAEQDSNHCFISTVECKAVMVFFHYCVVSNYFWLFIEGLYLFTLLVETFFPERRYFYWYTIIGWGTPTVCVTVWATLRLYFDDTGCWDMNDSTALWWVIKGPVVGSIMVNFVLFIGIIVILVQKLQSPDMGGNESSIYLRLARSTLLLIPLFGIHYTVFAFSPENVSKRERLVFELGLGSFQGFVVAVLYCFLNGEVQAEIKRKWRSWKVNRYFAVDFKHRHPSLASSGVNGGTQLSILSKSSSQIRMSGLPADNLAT

[1] = Stability test 1: survival rate of peptide in phosphate buffer (pH 7.0) after storage, HPLC; format: physicochemical; details: 100 μM peptide, 0.1% phosphate buffer pH 7.0, 40° C., 4 weeks (Table 4)
Summary of the method: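 Peptide solutions at 100 μM in phosphate buffer were stored at 40° C. for 1 week to 2 months depending on peptide. Remaining peptide was measured by reverse-phase HPLC peak area against an unstored standard, with survival rate also corrected for water loss through the container from weighing before and after storage.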

VPAC1 receptor = molecular target: T2, VPAC1 receptor (Homo sapiens, UniProt P32241); assay: cAMP assay in CHO-K1 cells, VPAC1 receptor high-expressing cell line; format: cell-based; details: 30 minutes incubation
T2 construct: host or cells: CHO-K1
T2 sequence (P32241 31-457): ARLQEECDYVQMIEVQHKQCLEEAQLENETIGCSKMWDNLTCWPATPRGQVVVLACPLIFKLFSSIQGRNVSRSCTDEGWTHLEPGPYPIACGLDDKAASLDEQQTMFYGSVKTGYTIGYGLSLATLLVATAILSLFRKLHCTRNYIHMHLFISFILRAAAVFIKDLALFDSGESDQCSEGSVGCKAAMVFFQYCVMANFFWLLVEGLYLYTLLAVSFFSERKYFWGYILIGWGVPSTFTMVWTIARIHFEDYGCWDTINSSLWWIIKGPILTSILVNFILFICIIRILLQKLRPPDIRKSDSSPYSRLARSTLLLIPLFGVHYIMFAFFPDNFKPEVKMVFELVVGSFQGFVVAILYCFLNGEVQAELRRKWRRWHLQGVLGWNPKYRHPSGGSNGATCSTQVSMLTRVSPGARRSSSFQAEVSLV
Description: The cells were cultured for 18 to 24 hours at 37° C. in a 5% CO2 incubator, adhering the cells to the plate. […] A 5-fold dilution series was then prepared with the same Cell assay buffer and used in an assay. The cAMP assay was carried out using a Hit Hunter cAMP Assay for Biologics kit (product of DiscoveRx, Cat. No. 90-0075LM25), according to the included kit instructions. […] Next, the culture medium was removed from the CHO-K1 cell culture plate, washing was performed with PBS, and the peptide-cAMP antibody liquid mixtures were added to the cells and incubated for 30 minutes under a 5% CO2 atmosphere at 37° C. A working detection solution was then added and the culture plate was shielded from light with aluminum foil and incubated at 25° C. for 1 hour. After incubation, Solution A was added and the culture plate was shielded from light with aluminum foil and then incubated at 25° C. for 3 hours. […] The obtained value for the Relative Luminescence Unit (RLU) was analyzed with GraphPad Prism Ver 6.05 (product of Graph Pad) and the EC50 value was calculated for each peptide.

[2] = Stability test 1: survival rate of peptide in phosphate buffer (pH 7.0) after storage, HPLC; format: physicochemical; details: 100 μM peptide, 0.1% phosphate buffer pH 7.0, head prints 80° C., 8 weeks (Table 4)

Compound | affinity of PAC1R for PACAP relative to affinity of PAC1R for VIP (PAC1 receptor (PAC1R)) | survival rate after correction for water, 40° C. 4 week [1] [%] | EC50 (VPAC1 receptor) [nM] | survival rate after correction for water, 80° C. 8 week [2] [%]
Pituitary adenylate cyclase-activating polypeptide [PACAP] | more than 1000 times | – | – | –
CC[C@H](C)[C@H](NC(=O)CNC(=O)C(Cc1nnn[nH]1)NC(=O)[C@H](CO)NC(=O)[C@@H](N)Cc1c[nH]cn1)C(=O)N[C@@H](Cc1ccccc1)C(=O)N[C@@H](C)C(=O)NC(Cc1nnn[nH]1)C(=O)N[C@@H](C)C(=O)N[C@@H](Cc1ccc(O)cc1)C(=O)N[C@@H](C)C(=O)N[C@@H](CCCNC(=N)N)C(=O)N[C@@H](Cc1ccc(O)cc1)C(=O)N[C@@H](CCCNC(=N)N)C(=O)N[C@@H](CCCCN)C(=O)N[C@@H](CCC(N)=O)C(=O)N[C@@H](CCSC)C(=O)N[C@@H](C)C(=O)N[C@H](C(=O)N[C@@H](CCCCN)C(=O)N[C@@H](CCCCN)C(=O)N[C@@H](Cc1ccc(O)cc1)C(=O)N[C@@H](CC(C)C)C(=O)N[C@@H](C)C(=O)N[C@@H](C)C(=O)N[C@H](C(=O)N[C@@H](CC(C)C)C(N)=O)C(C)C)C(C)C (stereo partly shown) [Peptide 3, HSTzGI FATzAY ARYRK QMAVK KYLAA VL] (H-HS[ξAla(tetrazol-5-yl)]GIFA[ξAla(tetrazol-5-yl)]AYARYRKQMAVKKYLAAVL-NH2) | – | 92.9 | 0.111 | 85.4
